{"source": "ChEMBL document CHEMBL1142505", "about": "“Synthesis and antitubercular activity of ferrocenyl diaminoalcohols and diamines” (2008)", "tested_on": "Mycobacterium tuberculosis", "assay": "Antitubercular activity against Mycobacterium tuberculosis H37Rv after 2 days by mycobacteria growth indicator tube system", "assay_type": "functional", "conditions": "48 h"}
{"smiles": "CC(CNCc1ccccc1)NCc1ccccc1", "note": "(stereo not drawn)", "values": [{"measurement": "MIC", "result": "> 64", "unit": "µg/mL"}]}
{"smiles": "c1ccc(CNCCNCc2ccccc2)cc1", "values": [{"measurement": "MIC", "result": "> 64", "unit": "µg/mL"}]}
{"smiles": "CC[C@@H](CO)NCCN[C@@H](CC)CO", "note": "[ETHAMBUTOL]", "values": [{"measurement": "MIC", "result": 2, "unit": "µg/mL"}]}
